Laboratory results reported in ChEMBL document CHEMBL1201862, “PubChem BioAssay data set” (2004).
Active and inactive are the calls of the source.

Experiments:
[1] = molecular target: T1, Nuclear receptor subfamily 0 group B member 1 (Homo sapiens, UniProt P51843); type: functional, cell-based;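 note: HEK293T cells transfected with SF-1 and DAX-1 plus StAR promoter luciferase reporter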
T1 sequence (P51843 whole entry): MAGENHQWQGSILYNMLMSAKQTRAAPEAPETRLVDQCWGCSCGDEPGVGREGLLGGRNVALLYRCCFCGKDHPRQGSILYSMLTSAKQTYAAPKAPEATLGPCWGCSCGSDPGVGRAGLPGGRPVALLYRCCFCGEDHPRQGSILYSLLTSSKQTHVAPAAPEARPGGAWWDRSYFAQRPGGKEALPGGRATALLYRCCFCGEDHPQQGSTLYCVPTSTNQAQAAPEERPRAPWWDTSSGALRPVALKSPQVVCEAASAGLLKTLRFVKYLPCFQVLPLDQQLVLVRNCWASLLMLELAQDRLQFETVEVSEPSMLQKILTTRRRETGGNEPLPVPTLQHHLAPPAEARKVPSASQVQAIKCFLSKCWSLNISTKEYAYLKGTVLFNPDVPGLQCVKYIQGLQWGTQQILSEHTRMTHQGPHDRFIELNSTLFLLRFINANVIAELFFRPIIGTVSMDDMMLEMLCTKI

[2] = cells; type: functional, cell-based
[3] = molecular target: Photoreceptor-specific nuclear receptor (Homo sapiens, UniProt Q9Y5X4); type: functional, cell-based;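 note: CHO-S cells with Gal4-NCOR and VP16-NR2E3 two-hybrid luciferase reporter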
[4] = test system: Vero; assay: Vero cell toxicity, dose response, cytotoxicity control, plate reader, cherry-pick samples (AID 687020); type: functional, cell-based; conditions: Chlorocebus sabaeus
[5] = molecular target: Potassium voltage-gated channel subfamily KQT member 2 (Rattus norvegicus, UniProt O88943); assay: KCNQ2 potassium channel inhibitors, dose response, cell-based, automated electrophysiology, set II, rat KCNQ2 (AID 588637); type: functional
[6] = molecular target: Hepatocyte nuclear factor 4-alpha (Homo sapiens, UniProt P41235); type: functional, cell-based;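 note: biochemical luminescence-based dose-response counterscreen measuring inhibition of HNF4 dimerization, run alongside a screen for blockers of ABHD5–perilipin-5 interaction; split luciferase complementation of HNF4 fusion proteins in cell lysate measuring dimerization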
[7] = molecular target: T2, Beta Lactamase (Pseudomonas aeruginosa, UniProt Q932Y6); assay: VIM-2 metallo-beta-lactamase inhibitor potency, dose response, biochemical, epi-absorbance readout, selective inhibitors (AID 1919)
[8] = molecular target: T3, Beta-lactamase (Pseudomonas aeruginosa, UniProt Q79MP6); assay: IMP-1 metallo-beta-lactamase inhibitors, dose response, selectivity assay for VIM-2 inhibitor project, biochemical, epi-absorbance (AID 1920)
[9] = test system: HEK293; assay: inhibitors of LMP1-driven NF-kB reporter, dose response, cell-based, HEK293, luciferase, cherry-pick (AID 588343); type: functional; conditions: Homo sapiens
[10] = molecular target: T2, Beta Lactamase; assay: VIM-2 inhibitor FRET-based artefact check, dose response, artefact control for selective VIM-2 inhibitor project, biochemical, FRET readout, CCF2 substrate (AID 1926)
[11] = molecular target: DNA dC->dU-editing enzyme APOBEC-3A (Homo sapiens, UniProt P31941); assay: APOBEC3A DNA deaminase inhibitors, dose response, biochemical (AID 504722); type: functional
[12] = molecular target: Beta-lactamase (Salmonella choleraesuis (strain SC-B67), UniProt Q5J463); assay: Epi-absorbance-based counterscreen for selective VIM-2 inhibitors: dose response biochemical high throughput screening assay to identify inhibitors of TEM-1 serine-beta-lactamase.
[13] = molecular target: T3, Beta-lactamase; assay: […] counterscreen for selective VIM-2 inhibitors: dose response biochemical high throughput screening assay to identify inhibitors of IMP-1 metallo-beta-lactamase.
[14] = molecular target: DNA dC->dU-editing enzyme APOBEC-3G (Homo sapiens, UniProt Q9HC16); assay: Dose Response confirmation of small molecule APOBEC3G DNA Deaminase Inhibitors via a fluorescence-based single-stranded DNA deaminase assay. [Related pubchem assays (depositor defined):AID493012, AID493028]; type: functional
Chain of DNA dC->dU-editing enzyme APOBEC-3G (Q9HC16 whole entry): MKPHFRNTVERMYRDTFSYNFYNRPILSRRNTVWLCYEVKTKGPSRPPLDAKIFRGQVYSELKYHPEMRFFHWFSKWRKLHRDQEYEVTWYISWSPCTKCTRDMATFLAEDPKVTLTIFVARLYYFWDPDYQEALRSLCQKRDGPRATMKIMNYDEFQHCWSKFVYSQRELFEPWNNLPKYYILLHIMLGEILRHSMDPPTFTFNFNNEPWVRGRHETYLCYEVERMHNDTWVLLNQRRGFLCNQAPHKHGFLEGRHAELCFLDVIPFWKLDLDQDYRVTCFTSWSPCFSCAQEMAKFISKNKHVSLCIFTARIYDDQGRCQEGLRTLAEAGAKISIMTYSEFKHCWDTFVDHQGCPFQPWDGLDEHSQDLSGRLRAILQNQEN

T2 sequence (Q932Y6 whole entry): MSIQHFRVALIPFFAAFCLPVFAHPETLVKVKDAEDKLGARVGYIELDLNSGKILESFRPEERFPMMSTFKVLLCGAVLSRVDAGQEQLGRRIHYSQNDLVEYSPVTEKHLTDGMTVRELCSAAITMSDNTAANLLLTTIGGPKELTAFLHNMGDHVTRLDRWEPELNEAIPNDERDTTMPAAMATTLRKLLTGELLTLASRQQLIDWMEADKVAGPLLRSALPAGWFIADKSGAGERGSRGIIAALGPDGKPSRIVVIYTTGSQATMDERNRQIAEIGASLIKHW
T3 sequence (Q79MP6 whole entry): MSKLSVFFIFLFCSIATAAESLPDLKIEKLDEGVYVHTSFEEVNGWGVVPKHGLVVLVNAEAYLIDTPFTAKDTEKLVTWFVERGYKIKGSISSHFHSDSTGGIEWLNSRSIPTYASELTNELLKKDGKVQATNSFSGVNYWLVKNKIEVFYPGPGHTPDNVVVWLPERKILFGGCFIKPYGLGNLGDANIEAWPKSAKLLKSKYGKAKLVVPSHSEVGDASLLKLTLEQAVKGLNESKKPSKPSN
Chain of Beta-lactamase (Salmonella choleraesuis (strain SC-B67), UniProt Q5J463) (Q5J463 whole entry): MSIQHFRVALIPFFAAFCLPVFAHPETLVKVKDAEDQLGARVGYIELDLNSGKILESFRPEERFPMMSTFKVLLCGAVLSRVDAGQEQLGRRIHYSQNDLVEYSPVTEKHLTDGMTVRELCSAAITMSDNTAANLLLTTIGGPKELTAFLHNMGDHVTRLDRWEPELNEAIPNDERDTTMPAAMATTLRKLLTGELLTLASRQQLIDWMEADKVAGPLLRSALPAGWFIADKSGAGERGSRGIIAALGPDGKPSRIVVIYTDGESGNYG
Chain of Potassium voltage-gated channel subfamily KQT member 2 (O88943 whole entry, the tested form may be a part): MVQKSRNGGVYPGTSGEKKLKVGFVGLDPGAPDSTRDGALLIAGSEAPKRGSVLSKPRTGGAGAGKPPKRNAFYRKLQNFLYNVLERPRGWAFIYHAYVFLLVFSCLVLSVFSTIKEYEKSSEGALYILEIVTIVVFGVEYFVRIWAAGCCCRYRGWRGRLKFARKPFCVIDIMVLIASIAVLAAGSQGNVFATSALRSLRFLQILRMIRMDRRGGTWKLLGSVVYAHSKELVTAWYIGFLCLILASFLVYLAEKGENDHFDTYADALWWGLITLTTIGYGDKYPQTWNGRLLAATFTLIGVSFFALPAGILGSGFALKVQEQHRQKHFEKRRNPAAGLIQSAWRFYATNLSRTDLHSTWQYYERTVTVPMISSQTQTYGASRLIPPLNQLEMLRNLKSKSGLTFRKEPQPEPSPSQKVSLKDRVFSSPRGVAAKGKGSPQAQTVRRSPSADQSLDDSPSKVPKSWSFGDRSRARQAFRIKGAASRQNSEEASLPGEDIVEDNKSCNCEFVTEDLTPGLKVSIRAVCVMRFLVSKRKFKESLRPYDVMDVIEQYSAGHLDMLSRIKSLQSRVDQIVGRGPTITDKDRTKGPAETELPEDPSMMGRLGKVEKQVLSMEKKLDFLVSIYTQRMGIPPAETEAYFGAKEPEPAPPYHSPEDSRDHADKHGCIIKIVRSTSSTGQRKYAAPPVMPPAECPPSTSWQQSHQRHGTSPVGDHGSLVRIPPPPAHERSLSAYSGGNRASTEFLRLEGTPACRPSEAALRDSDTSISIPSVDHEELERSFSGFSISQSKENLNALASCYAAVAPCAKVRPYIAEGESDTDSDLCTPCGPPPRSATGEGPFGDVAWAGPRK
Chain of DNA dC->dU-editing enzyme APOBEC-3A (P31941 whole entry): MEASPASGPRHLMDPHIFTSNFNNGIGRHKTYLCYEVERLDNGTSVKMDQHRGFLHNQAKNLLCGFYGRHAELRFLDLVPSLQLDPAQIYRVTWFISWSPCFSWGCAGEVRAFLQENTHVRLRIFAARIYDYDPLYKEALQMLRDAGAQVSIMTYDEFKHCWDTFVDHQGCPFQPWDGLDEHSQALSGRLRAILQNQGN
Chain of Photoreceptor-specific nuclear receptor (Q9Y5X4 whole entry, the tested form may be a part): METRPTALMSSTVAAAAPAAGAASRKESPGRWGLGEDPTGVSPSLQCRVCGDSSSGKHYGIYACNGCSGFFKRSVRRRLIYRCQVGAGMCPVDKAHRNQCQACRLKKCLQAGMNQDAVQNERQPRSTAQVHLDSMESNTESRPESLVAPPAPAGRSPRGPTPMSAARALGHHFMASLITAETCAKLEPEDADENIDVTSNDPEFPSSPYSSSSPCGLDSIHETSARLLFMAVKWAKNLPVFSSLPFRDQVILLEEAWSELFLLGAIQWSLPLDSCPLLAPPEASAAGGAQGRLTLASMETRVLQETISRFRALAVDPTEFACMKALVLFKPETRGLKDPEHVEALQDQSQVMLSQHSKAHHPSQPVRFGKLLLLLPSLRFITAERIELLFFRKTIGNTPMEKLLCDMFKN
Chain of Hepatocyte nuclear factor 4-alpha (P41235 whole entry, the tested form may be a part): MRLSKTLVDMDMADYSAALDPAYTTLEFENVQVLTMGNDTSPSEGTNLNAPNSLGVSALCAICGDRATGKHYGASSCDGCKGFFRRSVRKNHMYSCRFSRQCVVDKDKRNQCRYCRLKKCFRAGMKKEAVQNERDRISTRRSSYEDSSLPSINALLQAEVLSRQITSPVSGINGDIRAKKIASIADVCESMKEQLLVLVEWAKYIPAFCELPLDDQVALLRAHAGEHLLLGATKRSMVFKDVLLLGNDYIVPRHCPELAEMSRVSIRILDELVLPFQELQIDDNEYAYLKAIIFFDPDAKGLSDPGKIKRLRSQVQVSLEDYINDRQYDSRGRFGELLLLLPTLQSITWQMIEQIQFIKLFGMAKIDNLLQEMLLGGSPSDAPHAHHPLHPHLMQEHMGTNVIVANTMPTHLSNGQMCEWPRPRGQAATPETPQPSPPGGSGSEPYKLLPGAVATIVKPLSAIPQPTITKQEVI

In the case of COc1ccccc1NS(=O)(=O)c1cc(NC(=O)c2ccc(NC(C)=O)cc2)ccc1N1CCOCC1, the IC50 [1] is reported as > 67.5 µM (inactive) and the IC50 [2] is reported as > 67.5 µM (inactive).

In the case of CCOC(=O)N1CCN(C(=O)c2ccc(S(=O)(=O)Nc3ccc(C)cc3)cc2)CC1, the IC50 [3] is reported as 5.96 µM (active).

With COc1ccc(C)cc1N(CC(=O)Nc1ccc(S(=O)(=O)N2CCOCC2)cc1)S(C)(=O)=O the AC50 [4] was 29.5 µM (active).

For CCc1nc2ccc(F)cc2c(C(=O)NC2CCCCC2C)c1C (centres undefined), the IC50 [5] was 0.636 µM (active).

In the case of CC(C)(C)NC(=O)C(c1ccc(-c2ccccc2)cc1)n1c(=O)c(-c2ccco2)nc2ccccc21 (centres undefined), the IC50 [6] is reported as 1.91 µM (active).

In the case of CC(=C/c1ccccc1)/C=N/n1c(S)nnc1-c1ccncc1, the IC50 [7] is reported as > 59.6 µM (inactive), the IC50 [8] is reported as > 59.6 µM (inactive) and the AC50 [9] is reported as 5.9 µM (active). The IC50 [10] was 3.26 µM (active), the IC50 [11] was > 100 µM (inactive) and the IC50 [12] was > 59.6 µM (inactive). For the same compound, the IC50 [13] was > 59.6 µM (inactive) and the IC50 [14] was 2.33 µM (active).
